Reference: patent publication US11827897B2, “Agricultural compositions and related methods” (Flagship Pioneering Innovations VI, LLC, priority 2018, dated 2023)
Where a SMILES comes first, the peptide text is derived from it.

What was measured:
BMS cell growth = test: Cytotoxicity assay for concentrations not affecting apparent BMS cell growth; format: cell-based, Zea mays
Experimental: (§1) To determine the effect of the flagellin peptide flg22 ([…] (SEQ ID NO: 14) (AnaSpec AS-62633) on PMP production by Zea mays BMS cells, 200 mL of BMS cell culture were prepared as described above. A cytotoxicity assay was carried out to determine the range of concentrations of flg22 that would not affect apparent BMS cell growth, and the flg22 concentration of 1 μM was determined to be compatible with cell growth. 30 mL of BMS cell suspension was distributed in individual 125 mL conical culture vented-flasks. In parallel, 89.55 mL of fresh media was mixed with 450 μL of 400 μM flg22 peptide suspension prepared in ultrapure sterile water to a final concentration of 2 μM. For the control conditions, 450 μL of ultrapure sterile water was added instead of flg22. Then, 30 mL of the media/flg22 or media/water mix was added to each flask containing 30 mL cell suspension (1:1 v/v) to a flg22 final concentration of 1 μM. Biological triplicates were performed for both flg22 treatment and control conditions. Control cells and cells treated with flg22 were grown at 24° C. with agitation (110 rpm) for 96 hours.
To determine the effect of salicylic acid (SA) on PMP production by Zea mays BMS cells, 200 mL of BMS cell culture were prepared as described above. […] 30 mL of BMS cell suspension was distributed into individual 125 mL conical culture vented-flasks. […]

Zea mays BMS cells = test: PMP production by Zea mays BMS cell culture after elicitation (NanoFCM); format: cell-based; conditions: 100 μM salicylic acid, 96 hours
Experimental: Zea mays, Black Mexican Sweet (BMS) cells were purchased from the ABRC. BMS cells were grown in Murashige and Skoog basal medium pH 5.8, containing 4.3 g/L Murashige and Skoog Basal Salt Mixture (Sigma M5524), 2% sucrose (S0389, Millipore Sigma), 2 mg/L 2,4-dichlorophenoxyacetic acid (D7299, Millipore Sigma), 250 ug/L thiamine HCL (V-014, Millipore Sigma) and a 1× MS vitamin mix solution in ddH2O. The 1× vitamin mix solution contained niacin (N0761-100G, Millipore Sigma), pyroxidine hydrochloride (P6280-25G, Millipore Sigma), D-pantothenic acid hemicalcium salt (P5155-100G, Millipore Sigma), L-Asparagine (A4159-25G, Millipore Sigma), and myo-inositol (17508-100G, Millipore Sigma) at respective final concentrations of 1.3 mg/L, 250 μg/L, 250 μg/L, 130 mg/L, and 200 mg/L. Cells were grown in 1 L vented conical sterile flasks in dark conditions at 24° C. with agitation (110 rpm). For experiments, BMS cells were grown until cells were at a packed cell volume (PCV) of 20%. The PCV estimates cell density and is defined as the volume of cells divided by the total volume of the cell culture aliquot. The Packed Cell Volume is expressed as a percentage. The PCV was determined as follows: 5 mL of BMS cell suspension was centrifuged for 5 min at 3900 rpm, and the volume of the cell pellet was determined.
as §1, with “Then, 30 mL of the media/flg22 or media/water mix was added to each flask containing 30 mL cell suspension (1:1 v/v) to a flg22 final concentration of 1 μM. Biological triplicates were performed for both flg22 treatment and control conditions. Control cells and cells treated with flg22 were grown at 24° C. with agitation (110 rpm) for 96 hours.” left out

[1] = test system: tomato plants grown in hydroponic culture; test: PMP production by tomato plants grown in hydroponic culture after salicylic acid treatment; format: in vivo, Solanum lycopersicum
Experimental: Seeds of tomato (Solanum lycopersicum) cultivar Moneymaker were sterilized as follows: 70% ethanol for 3 min, 50% household bleach with 0.1% Triton X-100 (Sigma) for 20 min, washed three times with sterile deionized water. Sterilized seeds were germinated on moistened filter paper (Whatman®) in sterile Petri dishes sealed with medical tape (3M) and placed in a plant growth incubator (16 hr light, 23 C/21 C day/night) for seven days. Clear, square, pre-sterilized plastic containers (PhytoTech Labs) were assembled into hydroponic containers similar to what was previously described (Alatorre-Cobos et al., BMC Plant Biol., 14: Article No.: 69, 2014; FIG. 8A). Two containers were cut with sterile scalpels to assemble a support for a sterile polytetrafluoroethylene (PTFE) plastic mesh (McMaster-Carr). Plastic mesh was fixed to plastic supports with sterile staples. Small openings were cut into the plastic mesh and germinated seedlings threaded through the openings using sterile forceps. Each mesh supported five seedlings. 200 mL 1×MS growth medium (Murashige & Skoog basal salt mixture (Sigma) 4.3 g/L, sucrose 10 g/L, MES (Sigma) 0.5 g/L, pH 5.8 adjusted with KOH) was added to a whole plastic container serving as the base. Plastic support with mesh and threaded seedlings was placed into the base container. A second whole plastic container with a cut 2 cm^2 opening and sealed with medical tape was used as the lid. The two halves were sealed with medical tape and the containers transferred to a plant incubator (16 hr light, 23° C./21° C. day/night) for three weeks. […]
Culture medium (180 mL per container) was collected and centrifuged at 4,000×g for 30 min to pellet debris. […] Pellets were resuspended in 200 μL 1×PBS, pH 7.4 and analyzed using nano flow-cytometry (NanoFCM). PMP concentration (treatment: 4.06×10^11±1.41×10^11 PMP/mL (SEM); control: 5.44×10^10±2.49×10^10 PMP/mL (SEM)) and PMP size (treatment: 97±25 nm (SD); control: 82±27 nm (SD)) were determined by NanoFCM using concentration and size standards provided by the manufacturer (FIG. 8B).

Row | SMILES | concentration compatible with cell growth (BMS cell growth; Zea mays BMS cells) [µM] | effect on production of PMPs by BMS cells in culture (Zea mays BMS cells) | PMP concentration (Zea mays BMS cells; BMS cells, average of triplicates, DMSO control 1.47×10^11 PMP/mL) | mean PMP size (Zea mays BMS cells; BMS cells, control 87±15 nm) [nm] | PMP size ([1]; 1 mM salicylic acid for three days, ± SD, control 82±27 nm) [nm] | effect on secretion of PMPs from the plant roots ([1]; hydroponically grown tomato, 1 mM salicylic acid) | PMP concentration ([1]; three-week-old tomato plants, 1 mM salicylic acid for three days, ± SEM, n=2, DMSO control 5.44×10^10±2.49×10^10) | concentration compatible with cell growth (BMS cell growth; Zea mays) [µM]
1 | CC[C@H](C)[C@H](NC(=O)[C@H](CCC(N)=O)NC(=O)[C@H](CC(C)C)NC(=O)CNC(=O)[C@H](C)NC(=O)[C@H](C)NC(=O)[C@H](CC(=O)O)NC(=O)[C@H](CC(=O)O)NC(=O)[C@H](CCCCN)NC(=O)[C@H](C)NC(=O)[C@H](CO)NC(=O)[C@H](CC(N)=O)NC(=O)[C@@H](NC(=O)[C@H](CCCNC(=N)N)NC(=O)[C@H](CO)NC(=O)CNC(=O)[C@@H](NC(=O)[C@H](CO)NC(=O)[C@H](CC(C)C)NC(=O)[C@H](CCCNC(=N)N)NC(=O)[C@@H](N)CCC(N)=O)[C@@H](C)O)[C@@H](C)CC)C(=O)N[C@@H](C)C(=O)O [flg22] (H-QRLSTGSRINSAKDDAAGLQIA-OH) | 1 | – | – | – | – | – | – | –
2 | O=C(O)c1ccccc1O [salicylic acid] | – | stimulates the production of PMPs | 1.84×10^11 PMP/mL | 86.5±15 | 97±25 | enhance secretion of PMPs from the plant roots | 4.06×10^11±1.41×10^11 PMP/mL | 100
